Assay [1] concerns malignant melanoma cell line MM-RU. In words: Apoptosis analysis by PI method in malignant melanoma cell line MM-RU. Type of assay: cell-based, human. As to conditions: incubated with galectin-9 for 72 hr, FIG. 10. The procedure: (§1) Apoptotic activity was measured by the PI method. When cells are incubated with galectin-9, washed, then subjected to alcohol-fixation, and fragmented DNAs flow out of the cell. Subsequently, incubation with PI leads to a reduction in the fluorescence intensity of apoptotic cells. Apoptosis was examined by the percentage of the cells wherein their fluorescence intensity was reduced. […] This induction was at the same level as H2O2 (hydrogen peroxide solution) that was used as a positive control. In addition, the same results were obtained by another method for examining apoptosis, TUNEL assay.

The subject of assay [2] is MOLT-4 cells. Briefly: Apoptosis analysis by PI method in MOLT-4 cells. The assay is classed as cell-based, human. The procedure: (§2) MOLT-4 (T cell), Jurkat (T cell), BALL-1 (B cell), THP-1 (acute monocytic leukemia derived cell), and HL60 (acute promyelotic leukemia derived cell) cells were obtained from American Type Culture Collection (ATCC). All the cell lines were maintained in an RPMI-1640 medium (Sigma, St. Louis, US) supplemented with 10% FCS in 5% Co2 at 37° C. Lactose (30 mM) was added to the culture medium to inhibit Gal-9 activity. The same concentration of sucrose was used as a control.
Cells that underwent apoptosis induction were centrifuged at 4° C. for 5 min at 1,000 rpm, and the cell pellet was resuspended in PBS (300 μL), and adjusted to a final concentration of 70% by gradually adding 100% cold ethanol (700 μL) to the suspended cells with vortexing. Cells were fixed by incubation at 4° C. for 30 min, and centrifuged at 4° C. for 5 min at 1,000 rpm after adding PBS (1 mL), and the cell pellet was resuspended in PBS (440 μL). Cells were incubated with ribonuclease A (10 μL; the final concentration 50 μg/mL, Sigma, St. Louis, Mo., US) at 37° C. for 30 min, and with 2.5 mg/mL propidium iodide (4 μL; the final concentration of PI 20 μg/mL, Sigma) at 4° C. for 10 min in the dark. Stained cells were analyzed by flow cytometry (Sandstrom, K. et al., J Immunol Methods, 240: 55 (2000) and Zhang L. et al., Cancer Lett, 142: 129 (1999)) after removing aggregated cells through a nylon mesh and increasing the cell volume with PBS.
(3) Cultured Cell Lines Were Incubated With rGal-9 for the Appropriate Length of Time, 24 hr for Instance. Apoptosis Analysis was Conducted by the Above-Described PI Method (1).
as §1

Assay [3] has as its system CD8+ T cells. Briefly: Apoptosis induction in peripheral blood CD8+ T cells, resting or anti-CD3 Ab-activated. As to conditions: galectin (+), 1 μM rGal-9. Type of assay: cell-based, human. The procedure: To prepare a well plate coated with anti-CD3 Ab, 24 well palates were incubated with TBS solution (pH 8.0) containing 3 μg/mL anti-CD3 Ab (Inmunotech, Marseille, France) per well at 4° C. overnight, and each well was washed with PBS after removing anti-CD3 Ab solution.
Mononuclear leukocyte fractions were isolated from heparinized blood using HISTOPAQUE (Registered trademark, SIGMA). CD4-Positive Isolation Kit (DYNAL, Oslo, Norway) was used for isolation of CD4+ T cells and Dynabeads M-450 CD8 (Registered trademark, DYNAL, Oslo, Norway) for isolation of CD8+ T cells, respectively, according to the manufacturer's instructions.
To activate T cells, CD4+ or CD8+ cells at 1×10^6 cells/mL in an RPMI-1640 medium containing 10% FCS were incubated on the plate coated with anti-CD3 Ab for 20 to 24 hr at 37° C. in a 5% CO2 incubator, and incubated with rGal-9 [(His)6-Gal-9(S)] at 37° C. in a 5% CO2 incubator. Then apoptosis assay was conducted as described in (c). That is, cells were incubated with 50 μg/mL PI (SIGMA) at 37° C. for 10 min in the dark. Stained cells were analyzed by flow cytometry (Sandstrom, K. et al., J Immunol Methods, 240: 55 (2000) and Zhang L. et al., Cancer Lett, 142: 129 (1999)).
Apoptosis assay was also conducted for non-activated (resting) T cells as described above after incubating them with rGal-9 [(His)6-Gal-9(S)] at 37° C. in a 5% Co2 incubator.
For comparison, galectin-1 and -3 treated cells were analyzed.
Next, apoptosis induction by Gal-9 in human peripheral blood T cells was examined. T cells were separated into CD4+ and CD8+ T cells followed by incubation in the presence or absence of anti-CD3 Ab. Resting T cells and anti-CD3 Ab-activated T cells were incubated with 1 μM rGal-9.

The test system of assay [4] is CD8 T Cell. In words: Apoptosis induction in non-activated normal CD8 T cells (Table 4). The assay is classed as cell-based. As to conditions: 1 μM galectin-9, 1 μM galectin-3. The procedure: For example, measurements of apoptosis induction in the presence of 1 μM galectin-9 are as shown in Table 4 below (also 1 μM for galectin-3 in Table 4).
The subject of assay [5] is MOLT-4 cells. Briefly: Ca2+ influx, Fluo-3 assay by flow cytometry. Type of assay: cell-based, human. As to conditions: Fluo-3 assay, FIG. 8. The procedure:
Cells (approx. 10^6 to 10^7 cells/mL) in the culture medium (10% FCS, RPMI-1640 containing 10 mM HEPES, pH 7.2) were incubated with fluo-3 AM (final concentration 10 μM, Dojindo, Kumamoto, Japan), an intracellular calcium indicator, at 37° C. for 30 min (Sharp, B. M. et al., Proc. Natl. Acad. Sci. USA, 93: 8294 (1996)). Then the cells were washed and resuspended in the culture medium (final concentration, approx. 2×10^5 cells/mL per sample). Intracellular calcium level was measured by flow cytometry. The resting cells were stimulated at 1 min after their fluorescence intensities were measured.
Next, sequential measurement was restarted until different stimuli were applied. In lactose inhibition assay, cells were stimulated in the presence of 30 mM lactose. Sucrose (30 mM) was used as a control (Sano, H. et al., J. Imnunol., 165: 2156 (2000)). A23187 (calcium ionophore, final concentration 5 ng/mL, Wako, Osaka, Japan) was used as a positive control.
For orientation: In flow cytometry, cells or beads pass a laser one at a time.

The subject of assay [6] is MCF-7. In words: Apoptosis analysis by PI method in MCF-7 cells. Type of assay: cell-based. As to conditions: incubation with galectin-9 at least 48 hr or more. The procedure:
as §1

In assay [7] the test system is eosinophils. In words: Effect of Gal-9 on induced apoptosis of eosinophils. Type of assay: cell-based.
Assay [8] has as its system THP-1. Briefly: Apoptosis analysis by PI method in THP-1 cells. The assay is classed as cell-based. The procedure: as §2
Cells that underwent apoptosis induction were centrifuged at 4° C. for 5 min at 1,000 rpm, and the cell pellet was resuspended in PBS (300 μL), and adjusted to a final concentration of 70% by gradually adding 100% cold ethanol (700 μL) to the suspended cells with vortexing. […] Stained cells were analyzed by flow cytometry (Sandstrom, K. et al., J Immunol Methods, 240: 55 (2000) and Zhang L. et al., Cancer Lett, 142: 129 (1999)) after removing aggregated cells through a nylon mesh and increasing the cell volume with PBS. […]
Apoptotic activity was measured by the PI method. […] Subsequently, incubation with PI leads to a reduction in the fluorescence intensity of apoptotic cells. Apoptosis was examined by the percentage of the cells wherein their fluorescence intensity was reduced. […]

Take “Galectin-9: Recombinant human galectin-9 expressed in E. coli and purified on lactose-agarose”: the apoptosis induction result in assay [1] was “strongly induced”; in assay [2] (rGal-9 1 μM, 24 hr, FIG. 3), “induced”; in assay [8] (rGal-9 1 μM, 24 hr, FIG. 3) it was “induced”. The “apoptosis induction, Gal9 (+)” value in assay [2] (MOLT4, incubation with galectin-9 at least 48 hr or more) is recorded as 34.5; in assay [6], 14.1; in assay [8] (THP-1, incubation with galectin-9 at least 48 hr or more) it was 61.2. For the same substance, in assay [2] (PI method), the “apoptosis induction, time and dose dependence” value was “time-dependent and dose-dependent”. The “PI-stained cells, which underwent apoptosis” value in assay [2] (rGal-9 1 μM, PI method, FIG. 1A, PBS control 14.8%) was 34.5%. Also, the “apoptosis induction, CD8” value came out at 25.7 in assay [3] (CD3 (+) cells activated on anti-CD3 Ab-coated plates) and 17.8 in assay [3] (CD3 (−) untreated resting cells). For the same substance, the “apoptosis induction, CD8 T Cell Resting” value in assay [4] is 1.4. The calcium influx entry in assay [5] (A23187 final concentration 5 ng/mL) is recorded as “increased calcium influx”. In addition, in assay [5], the “time within which calcium influx increased after addition” value was 10 to 20 s. In assay [7], the “effect on DEX-induced apoptosis” value was “inhibits”. Also, the “effect on anti-Fas Ab-induced apoptosis” value in assay [7] is “stimulates”.

For the origin of these results see US20060134119A1, “Drugs containing galectin 9” (priority 2003, published 2006).
